# Source: ChEMBL document CHEMBL3885881, “DrugMatrix”
# Species on record: Rattus norvegicus
# Test: DrugMatrix - Regimen: Daily Repeat
# Assay type: toxicity, organism-based, Sprague-Dawley
# Set-up: regimen Daily Repeat, gender Male, age 6-8 weeks
# Details: in vivo, vehicle 100 % SALINE; for ABSOLUTE BASOPHIL / ABSOLUTE EOSINOPHIL / ABSOLUTE LYMPHOCYTE / ABSOLUTE MONOCYTE / BASOPHIL / EOSINOPHIL / ERYTHROCYTE COUNT / HEMATOCRIT / HEMOGLOBIN / LEUKOCYTE COUNT / LYMPHOCYTE / MEAN CORPUSCULAR HEMOGLOBIN / MEAN CORPUSCULAR HEMOGLOBIN CONCENTRATION / MEAN CORPUSCULAR VOLUME / MONOCYTE / NEUTROPHIL / NUCLEATED RED BLOOD CELLS / PLATELET COUNT: tissue Blood
# [1] = ip, 0.5 mg/kg, […], tissue Plasma, route intraperitoneal, dose level High, time 28 day
# [2] = iv, 0 mg/kg, 72 h, dose level Control, time 3 day
# [3] = iv, 0 mg/kg, 72 h, tissue Plasma, dose level Control, time 3 day
# [4] = iv, 0 mg/kg, 120 h, dose level Control, time 5 day
# [5] = iv, 0 mg/kg, 120 h, tissue Plasma, dose level Control, time 5 day
# [6] = iv, 2 mg/kg, 72 h, dose level High, time 3 day
# [7] = iv, 2 mg/kg, 72 h, tissue Plasma, dose level High, time 3 day
# [8] = iv, 2 mg/kg, 120 h, dose level High, time 5 day
# [9] = iv, 2 mg/kg, 120 h, tissue Plasma, dose level High, time 5 day
sequence,measurement,setting,value
CISPLATIN,ALKALINE PHOSPHATASE,[1],134.22 u/L
same,ASPARTATE AMINOTRANSFERASE,[1],78.67 u/L
same,BLOOD UREA NITROGEN,[1],25 mg/dL
same,CHOLESTEROL,[1],63.11 mg/dL
same,CREATININE,[1],0.82 mg/dL
same,GLUCOSE,[1],108.67 mg/dL
same,LACTATE DEHYDROGENASE,[1],80.89 u/L
same,LIPASE,[1],18.22 u/L
same,PHOSPHORUS,[1],9.11 mg/dL
same,POTASSIUM,[1],6.18 MEQ/L
same,SODIUM,[1],151.78 MEQ/L
same,TOTAL BILIRUBIN,[1],0.29 mg/dL
same,URIC ACID,[1],1.11 mg/dL
same,ABSOLUTE BASOPHIL,[2],0 CELLS/uL
same,ABSOLUTE EOSINOPHIL,[2],0 CELLS/uL
same,ABSOLUTE LYMPHOCYTE,[2],7026.17 CELLS/uL
same,ABSOLUTE MONOCYTE,[2],44.33 CELLS/uL
same,BASOPHIL,[2],0%
same,EOSINOPHIL,[2],0%
same,ERYTHROCYTE COUNT,[2],5.49 x10E6/uL
same,HEMATOCRIT,[2],33.67%
same,HEMOGLOBIN,[2],13.17 G/DL
same,LEUKOCYTE COUNT,[2],7.45 x10E3/uL
same,LYMPHOCYTE,[2],94%
same,MEAN CORPUSCULAR HEMOGLOBIN,[2],24.03 pg
same,MEAN CORPUSCULAR HEMOGLOBIN CONCENTRATION,[2],39.15 G/DL
same,MEAN CORPUSCULAR VOLUME,[2],61.4 fL
same,MONOCYTE,[2],0.67%
same,NEUTROPHIL,[2],5.33%
same,NUCLEATED RED BLOOD CELLS,[2],0.17 /100WBC
same,PLATELET COUNT,[2],1062.5 x10E3/uL
same,ALANINE AMINOTRANSFERASE,[3],53.17 u/L
same,ALKALINE PHOSPHATASE,[3],339.83 u/L
same,ASPARTATE AMINOTRANSFERASE,[3],83.33 u/L
same,BLOOD UREA NITROGEN,[3],16 mg/dL
same,CARBON DIOXIDE,[3],32.5 mmol/L
same,CHLORIDE,[3],98 MEQ/L
same,CHOLESTEROL,[3],74.67 mg/dL
same,CREATININE,[3],0.2 mg/dL
same,GLUCOSE,[3],128.67 mg/dL
same,LACTATE DEHYDROGENASE,[3],110.33 u/L
same,LIPASE,[3],9 u/L
same,PHOSPHORUS,[3],11.73 mg/dL
same,POTASSIUM,[3],6.34 MEQ/L
same,TOTAL BILIRUBIN,[3],0.18 mg/dL
same,URIC ACID,[3],1.28 mg/dL
same,ABSOLUTE BASOPHIL,[4],0 CELLS/uL
same,ABSOLUTE EOSINOPHIL,[4],26.67 CELLS/uL
same,ABSOLUTE LYMPHOCYTE,[4],8334.17 CELLS/uL
same,ABSOLUTE MONOCYTE,[4],29.5 CELLS/uL
same,BASOPHIL,[4],0%
same,EOSINOPHIL,[4],0.33%
same,ERYTHROCYTE COUNT,[4],5.44 x10E6/uL
same,HEMATOCRIT,[4],33.77%
same,HEMOGLOBIN,[4],13.05 G/DL
same,LEUKOCYTE COUNT,[4],8.98 x10E3/uL
same,LYMPHOCYTE,[4],92.33%
same,MEAN CORPUSCULAR HEMOGLOBIN,[4],24 pg
same,MEAN CORPUSCULAR HEMOGLOBIN CONCENTRATION,[4],38.67 G/DL
same,MEAN CORPUSCULAR VOLUME,[4],62.05 fL
same,MONOCYTE,[4],0.33%
same,NEUTROPHIL,[4],7%
same,NUCLEATED RED BLOOD CELLS,[4],0 /100WBC
same,PLATELET COUNT,[4],987 x10E3/uL
same,ALANINE AMINOTRANSFERASE,[5],43.5 u/L
same,ALKALINE PHOSPHATASE,[5],310.17 u/L
same,ASPARTATE AMINOTRANSFERASE,[5],76.67 u/L
same,BLOOD UREA NITROGEN,[5],17 mg/dL
same,CHLORIDE,[5],100.33 MEQ/L
same,CHOLESTEROL,[5],69.33 mg/dL
same,CREATININE,[5],0.22 mg/dL
same,GLUCOSE,[5],155.17 mg/dL
same,PHOSPHORUS,[5],11.2 mg/dL
same,POTASSIUM,[5],5.5 MEQ/L
same,TOTAL BILIRUBIN,[5],0.18 mg/dL
same,URIC ACID,[5],0.88 mg/dL
same,ABSOLUTE BASOPHIL,[6],0 CELLS/uL
same,ABSOLUTE EOSINOPHIL,[6],0 CELLS/uL
same,ABSOLUTE LYMPHOCYTE,[6],6398.67 CELLS/uL
same,ABSOLUTE MONOCYTE,[6],72 CELLS/uL
same,BASOPHIL,[6],0%
same,EOSINOPHIL,[6],0%
same,ERYTHROCYTE COUNT,[6],5.34 x10E6/uL
same,HEMATOCRIT,[6],33.2%
same,HEMOGLOBIN,[6],13.07 G/DL
same,LEUKOCYTE COUNT,[6],6.77 x10E3/uL
same,LYMPHOCYTE,[6],94.67%
same,MONOCYTE,[6],1%
same,NEUTROPHIL,[6],4.33%
same,NUCLEATED RED BLOOD CELLS,[6],0 /100WBC
same,PLATELET COUNT,[6],1193.33 x10E3/uL
same,ALANINE AMINOTRANSFERASE,[7],59.33 u/L
same,ALKALINE PHOSPHATASE,[7],321.33 u/L
same,ASPARTATE AMINOTRANSFERASE,[7],83.33 u/L
same,BLOOD UREA NITROGEN,[7],45.67 mg/dL
same,CARBON DIOXIDE,[7],28 mmol/L
same,CHLORIDE,[7],98.67 MEQ/L
same,CHOLESTEROL,[7],63.33 mg/dL
same,CREATININE,[7],0.81 mg/dL
same,GLUCOSE,[7],165.67 mg/dL
same,LACTATE DEHYDROGENASE,[7],157 u/L
same,LIPASE,[7],8.33 u/L
same,PHOSPHORUS,[7],9.77 mg/dL
same,POTASSIUM,[7],5.3 MEQ/L
same,TOTAL BILIRUBIN,[7],0.3 mg/dL
same,URIC ACID,[7],0.97 mg/dL
same,ABSOLUTE BASOPHIL,[8],0 CELLS/uL
same,ABSOLUTE EOSINOPHIL,[8],0 CELLS/uL
same,ABSOLUTE LYMPHOCYTE,[8],6841 CELLS/uL
same,ABSOLUTE MONOCYTE,[8],28.67 CELLS/uL
same,BASOPHIL,[8],0%
same,EOSINOPHIL,[8],0%
same,ERYTHROCYTE COUNT,[8],5.89 x10E6/uL
same,HEMOGLOBIN,[8],14.03 G/DL
same,LEUKOCYTE COUNT,[8],7.07 x10E3/uL
same,LYMPHOCYTE,[8],97%
same,MEAN CORPUSCULAR HEMOGLOBIN,[8],23.87 pg
same,MEAN CORPUSCULAR HEMOGLOBIN CONCENTRATION,[8],39.17 G/DL
same,MONOCYTE,[8],0.33%
same,NEUTROPHIL,[8],2.67%
same,NUCLEATED RED BLOOD CELLS,[8],0 /100WBC
same,PLATELET COUNT,[8],1329.67 x10E3/uL
same,ALANINE AMINOTRANSFERASE,[9],52 u/L
same,ALKALINE PHOSPHATASE,[9],249 u/L
same,ASPARTATE AMINOTRANSFERASE,[9],79.33 u/L
same,BLOOD UREA NITROGEN,[9],37.67 mg/dL
same,CHLORIDE,[9],100 MEQ/L
same,CHOLESTEROL,[9],80 mg/dL
same,CREATININE,[9],0.65 mg/dL
same,GLUCOSE,[9],137.33 mg/dL
same,LACTATE DEHYDROGENASE,[9],134.33 u/L
same,LIPASE,[9],11.67 u/L
same,PHOSPHORUS,[9],9.43 mg/dL
same,POTASSIUM,[9],5.31 MEQ/L
same,TOTAL BILIRUBIN,[9],0.17 mg/dL
same,URIC ACID,[9],0.67 mg/dL
